According to patent publication EP4578856A1, “HETEROCYCLIC COMPOUND” (Ubience Inc., priority 2022, dated 2024):

Target: ROCK2 protein (Homo sapiens, UniProt O75116)
Test: Degradation inducing activity of ROCK2 protein in HUVEC cells, Western blotting (Simple Western JESS)
Assay type: cell-based
Set-up: endogenous in cells; host or cells: HUVEC (ATCC CRL-1730)
Details: for inhibition at 1 µM / inhibition at 10 µM: HUVEC, 24 h; for ROCK2 protein degradation rate: 24 hours
Summary of the method: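 HUVEC cells treated 24 h with compound at 10 µM or 1 µM, then lysed; ROCK2 quantified by capillary Western (Simple Western JESS) using rabbit mAb D1B1, normalized to total loaded protein. Degradation rate (%) calculated relative to DMSO control set at 100%, binned A ≥75%, B 50–75%, C 25–50%, D <25%.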

ROCK2 protein, sequence (O75116 whole entry): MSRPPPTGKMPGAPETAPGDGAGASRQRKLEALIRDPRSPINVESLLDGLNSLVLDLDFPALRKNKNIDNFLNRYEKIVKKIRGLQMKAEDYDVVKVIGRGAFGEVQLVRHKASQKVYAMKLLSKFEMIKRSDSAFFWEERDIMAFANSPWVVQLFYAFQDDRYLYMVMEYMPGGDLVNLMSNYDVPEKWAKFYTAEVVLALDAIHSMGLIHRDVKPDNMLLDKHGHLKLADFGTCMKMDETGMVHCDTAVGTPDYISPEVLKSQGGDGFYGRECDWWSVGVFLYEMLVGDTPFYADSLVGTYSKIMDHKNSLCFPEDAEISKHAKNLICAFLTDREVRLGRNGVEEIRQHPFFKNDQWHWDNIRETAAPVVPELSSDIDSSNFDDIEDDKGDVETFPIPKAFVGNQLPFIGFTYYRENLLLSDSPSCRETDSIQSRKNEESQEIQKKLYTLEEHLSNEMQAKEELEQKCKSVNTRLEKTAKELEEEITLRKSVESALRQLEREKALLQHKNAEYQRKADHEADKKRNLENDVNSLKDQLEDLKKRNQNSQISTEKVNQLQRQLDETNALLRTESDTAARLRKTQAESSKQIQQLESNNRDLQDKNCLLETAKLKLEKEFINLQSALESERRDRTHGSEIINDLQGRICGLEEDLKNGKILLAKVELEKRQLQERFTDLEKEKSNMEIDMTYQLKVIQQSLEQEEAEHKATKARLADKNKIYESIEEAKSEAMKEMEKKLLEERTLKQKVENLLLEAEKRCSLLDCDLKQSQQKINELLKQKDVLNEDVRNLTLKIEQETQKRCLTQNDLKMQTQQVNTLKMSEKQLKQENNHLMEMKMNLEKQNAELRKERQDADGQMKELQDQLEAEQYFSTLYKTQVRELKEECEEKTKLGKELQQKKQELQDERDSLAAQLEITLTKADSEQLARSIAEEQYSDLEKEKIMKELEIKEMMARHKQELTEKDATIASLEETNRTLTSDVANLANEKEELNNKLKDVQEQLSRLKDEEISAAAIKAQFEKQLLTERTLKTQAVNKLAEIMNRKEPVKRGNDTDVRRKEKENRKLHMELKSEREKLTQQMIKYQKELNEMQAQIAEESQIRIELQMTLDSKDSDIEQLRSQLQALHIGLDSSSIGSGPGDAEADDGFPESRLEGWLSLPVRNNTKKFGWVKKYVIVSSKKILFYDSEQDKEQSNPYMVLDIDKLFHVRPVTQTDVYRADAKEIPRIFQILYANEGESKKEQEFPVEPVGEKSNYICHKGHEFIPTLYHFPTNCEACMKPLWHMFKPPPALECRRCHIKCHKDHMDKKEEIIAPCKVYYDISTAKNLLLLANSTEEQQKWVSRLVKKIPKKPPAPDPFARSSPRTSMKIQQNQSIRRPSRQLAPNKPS

SMILES | inhibition at 1 µM (degradation rate at 1 µM) [%] | inhibition at 10 µM (degradation rate at 10 µM) [%] | ROCK2 protein degradation rate (degradation rate at 1 µM) | ROCK2 protein degradation rate (degradation rate at 10 µM)
COC[C@H]1CN[C@H](C)CN1CC(=O)N1CC(C)(C)c2nc(CN(C)CCOCCOCCOCCOCCOCCN[C@H](Cc3cccc(F)c3)C(=O)Nc3ccc(-c4ccncc4)cc3)c(Cc3ccc(F)cc3)cc21 [Example 33, (R)-21-(3-Fluorobenzyl)-1-(6-(4-fluorobenzyl)-1-(2-((2R,5R)-2-(methoxymethyl)-5-methylpiperazin-1-yl)acetyl)-3,3-dimethyl-2,3-dihydro-1H-pyrrolo[3,2-b]pyridin-5-yl)-2-methyl-N-(4-(pyridin-4-yl)phenyl)-5,8,11,14,17-pentaoxa-2,20-diazadocosan-22-amide] | < 25 | ≥ 75 |  | 
C[C@@H]1CN(CC(=O)N2CC(C)(C)c3ncc(Cc4ccc(F)cc4)cc32)[C@@H](CN(C)CCOCCOCCOCCOCCNC[C@@H](C(=O)Nc2ccc3cnccc3c2)c2ccccc2)CN1 [Example 18, (S)-1-((2R,5R)-1-(2-(6-(4-Fluorobenzyl)-3,3-dimethyl-2,3-dihydro-1H-pyrrolo[3,2-b]pyridin-1-yl)-2-oxoethyl)-5-methylpiperazin-2-yl)-N-(isoquinolin-6-yl)-2-methyl-19-phenyl-5,8,11,14-tetraoxa-2,17-diazaicosan-20-amide] | ≥ 75 | ≥ 75 |  | 
C[C@@H]1CN(CC(=O)N2CC(C)(C)c3ncc(Cc4ccc(F)cc4)cc32)[C@@H](CN(C)CCOCCOCCOCCOCCOCCOCCOCCN[C@H](Cc2cccc(F)c2)C(=O)Nc2ccc(-c3ccncc3)cc2)CN1 [Example 14, (R)-27-(3-Fluorobenzyl)-1-((2R,5R)-1-(2-(6-(4-fluorobenzyl)-3,3-dimethyl-2,3-dihydro-1H-pyrrolo[3,2-b]pyridin-1-yl)-2-oxoethyl)-5-methylpiperazin-2-yl)-2-methyl-N-(4-(pyridin-4-yl)phenyl)-5,8,11,14,17,20,23-heptaoxa-2,26-diazaoctacosan-28-amide] | 25 to 50 | ≥ 75 |  | 
C[C@@H]1CN(CC(=O)N2CC(C)(C)c3ncc(Cc4ccc(F)cc4)cc32)[C@@H](CN(C)CCOCCOCCOCCOCCOCCN[C@H](C)c2ccc(C(=O)Nc3ccncc3)cc2)CN1 [Example 5, 4-((R)-1-((2R,5R)-1-(2-(6-(4-Fluorobenzyl)-3,3-dimethyl-2,3-dihydro-1H-pyrrolo[3,2-b]pyridin-1-yl)-2-oxoethyl)-5-methylpiperazin-2-yl)-2-methyl-5,8,11,14,17-pentaoxa-2,20-diazadocosan-21-yl)-N-(pyridin-4-yl)benzamide] | 25 to 50 | < 25 |  | 
C[C@@H]1CN(CC(=O)N2CC(C)(C)c3ncc(Cc4ccc(F)cc4)cc32)[C@@H](CN(C)CCOCCOCCOCCOCCOCCOCCOCCNC[C@@H](C(=O)Nc2ccc3cnccc3c2)c2ccccc2)CN1 [Example 21, (S)-1-((2R,5R)-1-(2-(6-(4-Fluorobenzyl)-3,3-dimethyl-2,3-dihydro-1H-pyrrolo[3,2-b]pyridin-1-yl)-2-oxoethyl)-5-methylpiperazin-2-yl)-N-(isoquinolin-6-yl)-2-methyl-28-phenyl-5,8,11,14,17,20,23-heptaoxa-2,26-diazanonacosan-29-amide] | 25 to 50 | 50 to 75 |  | 
COC[C@H]1CN[C@H](C)CN1CC(=O)N1CC(C)(C)c2nc(CN(C)CCOCCOCCOCCOCCOCCOCCN[C@H](Cc3cccc(F)c3)C(=O)Nc3ccc(-c4ccncc4)cc3)c(Cc3ccc(F)cc3)cc21 [Example 34, (R)-24-(3-Fluorobenzyl)-1-(6-(4-fluorobenzyl)-1-(2-((2R,5R)-2-(methoxymethyl)-5-methylpiperazin-1-yl)acetyl)-3,3-dimethyl-2,3-dihydro-1H-pyrrolo[3,2-b]pyridin-5-yl)-2-methyl-N-(4-(pyridin-4-yl)phenyl)-5,8,11,14,17,20-hexaoxa-2,23-diazapentacosan-25-amide] | < 25 | ≥ 75 |  | 
C[C@@H]1CN(CC(=O)N2CC(C)(C)c3ncc(Cc4ccc(F)cc4)cc32)[C@@H](CN(C)CCOCCOCCOCCOCCOCCNC[C@@H](C(=O)Nc2ccc3cnccc3c2)c2ccccc2)CN1 [Example 19, (S)-1-((2R,5R)-1-(2-(6-(4-Fluorobenzyl)-3,3-dimethyl-2,3-dihydro-1H-pyrrolo[3,2-b]pyridin-1-yl)-2-oxoethyl)-5-methylpiperazin-2-yl)-N-(isoquinolin-6-yl)-2-methyl-22-phenyl-5,8,11,14,17-pentaoxa-2,20-diazatricosan-23-amide] | 25 to 50 | ≥ 75 |  | 

Further lines, results first:

inhibition at 1 µM (degradation rate at 1 µM) [%] | inhibition at 10 µM (degradation rate at 10 µM) [%] | ROCK2 protein degradation rate (degradation rate at 1 µM) | ROCK2 protein degradation rate (degradation rate at 10 µM) | SMILES
≥ 75 |  |  |  | COC[C@H]1CN[C@H](C)CN1CC(=O)N1CC(C)(C)c2ncc(Cc3ccccc3OCCOCCOCCOCCOCCOCCN[C@H](C)c3ccc(C(=O)Nc4ccncc4)cc3)cc21 [Example 68, 4-((R)-20-(2-((1-(2-((2R,5R)-2-(Methoxymethyl)-5-methylpiperazin-1-yl)acetyl)-3,3-dimethyl-2,3-dihydro-1H-pyrrolo[3,2-b]pyridin-6-yl)methyl)phenoxy)-6,9,12,15,18-pentaoxa-3-azaicosan-2-yl)-N-(pyridin-4-yl)benzamide]
< 25 | ≥ 75 |  |  | COC[C@H]1CN[C@H](C)CN1CC(=O)N1CC(C)(C)c2ncc(Cc3ccccc3OCCOCCOCCN[C@H](Cc3cccc(F)c3)C(=O)Nc3ccc(-c4ccncc4)cc3)cc21 [Example 72, (R)-3-(3-Fluorophenyl)-2-((2-(2-(2-(2-((1-(2-((2R,5R)-2-(methoxymethyl)-5-methylpiperazin-1-yl)acetyl)-3,3-dimethyl-2,3-dihydro-1H-pyrrolo[3,2-b]pyridin-6-yl)methyl)phenoxy)ethoxy)ethoxy)ethyl)amino)-N-(4-(pyridin-4-yl)phenyl)propanamide]
50 to 75 | ≥ 75 |  |  | COC[C@H]1CN[C@H](C)CN1CC(=O)N1CC(C)(C)c2ncc(Cc3ccccc3OCCOCCOCCOCCOCCOCCOCCNC[C@@H](C(=O)Nc3ccc4cnccc4c3)c3ccccc3)cc21 [Example 83, (S)-N-(Isoquinolin-6-yl)-1-(2-((1-(2-((2R,5R)-2-(methoxymethyl)-5-methylpiperazin-1-yl)acetyl)-3,3-dimethyl-2,3-dihydro-1H-pyrrolo[3,2-b]pyridin-6-yl)methyl)phenoxy)-23-phenyl-3,6,9,12,15,18-hexaoxa-21-azatetracosan-24-amide]
< 25 | ≥ 75 |  |  | COC[C@H]1CN[C@H](C)CN1CC(=O)N1CC(C)(C)c2ncc(Cc3ccccc3OCCOCCNC[C@@H](C(=O)Nc3ccc4cnccc4c3)c3ccccc3)cc21 [Example 78, (S)-N-(Isoquinolin-6-yl)-3-((2-(2-(2-((1-(2-((2R,5R)-2-(methoxymethyl)-5-methylpiperazin-1-yl)acetyl)-3,3-dimethyl-2,3-dihydro-1H-pyrrolo[3,2-b]pyridin-6-yl)methyl)phenoxy)ethoxy)ethyl)amino)-2-phenylpropanamide]
50 to 75 | ≥ 75 |  |  | COC[C@H]1CN[C@H](C)CN1CC(=O)N1CC(C)(C)c2ncc(Cc3cccc(OCCOCCOCCOCCOCCOCCNC[C@@H](C(=O)Nc4ccc5cnccc5c4)c4ccccc4)c3)cc21 [Example 61, (S)-N-(Isoquinolin-6-yl)-1-(3-((1-(2-((2R,5R)-2-(methoxymethyl)-5-methylpiperazin-1-yl)acetyl)-3,3-dimethyl-2,3-dihydro-1H-pyrrolo[3,2-b]pyridin-6-yl)methyl)phenoxy)-20-phenyl-3,6,9,12,15-pentaoxa-18-azahenicosan-21-amide]
50 to 75 | ≥ 75 |  |  | COC[C@H]1CN[C@H](C)CN1CC(=O)N1CC(C)(C)c2nc(CN(C)CCOCCOCCOCCOCCOCCOCCOCCNC[C@@H](C(=O)Nc3ccc4cnccc4c3)c3ccccc3)c(Cc3ccc(F)cc3)cc21 [Example 42, (S)-1-(6-(4-Fluorobenzyl)-1-(2-((2R,5R)-2-(methoxymethyl)-5-methylpiperazin-1-yl)acetyl)-3,3-dimethyl-2,3-dihydro-1H-pyrrolo[3,2-b]pyridin-5-yl)-N-(isoquinolin-6-yl)-2-methyl-28-phenyl-5,8,11,14,17,20,23-heptaoxa-2,26-diazanonacosan-29-amide]
 |  | D (D < 25%) | B (75% > B ≥ 50%) | COC[C@H]1CN[C@H](C)CN1CC(=O)N1CC(C)(C)c2ncc(Cc3ccccc3OCCOCCOCCN[C@H](C)c3ccc(C(=O)Nc4ccncc4)cc3)cc21 [Example 65, 4-((R)-1-((2-(2-(2-(2-((1-(2-((2R,5R)-2-(Methoxymethyl)-5-methylpiperazin-1-yl)acetyl)-3,3-dimethyl-2,3-dihydro-1H-pyrrolo[3,2-b]pyridin-6-yl)methyl)phenoxy)ethoxy)ethoxy)ethyl)amino)ethyl)-N-(pyridin-4-yl)benzamide]
25 to 50 | 50 to 75 |  |  | COC[C@H]1CN[C@H](C)CN1CC(=O)N1CC(C)(C)c2ncc(Cc3cccc(OCCOCCOCCOCCN[C@H](Cc4cccc(F)c4)C(=O)Nc4ccc(-c5ccncc5)cc4)c3)cc21 [Example 52, (R)-2-(3-Fluorobenzyl)-14-(3-((1-(2-((2R,5R)-2-(methoxymethyl)-5-methylpiperazin-1-yl)acetyl)-3,3-dimethyl-2,3-dihydro-1H-pyrrolo[3,2-b]pyridin-6-yl)methyl)phenoxy)-N-(4-(pyridin-4-yl)phenyl)-6,9,12-trioxa-3-azatetradecanamide]
< 25 | 50 to 75 |  |  | COC[C@H]1CN[C@H](C)CN1CC(=O)N1CC(C)(C)c2ncc(Cc3cccc(OCCOCCOCCOCCN[C@H](C)c4ccc(C(=O)Nc5ccncc5)cc4)c3)cc21 [Example 45, 4-((R)-14-(3-((1-(2-((2R,5R)-2-(Methoxymethyl)-5-methylpiperazin-1-yl)acetyl)-3,3-dimethyl-2,3-dihydro-1H-pyrrolo[3,2-b]pyridin-6-yl)methyl)phenoxy)-6,9,12-trioxa-3-azatetradecan-2-yl)-N-(pyridin-4-yl)benzamide]
